{"source": "patent EP4497440A1", "about": "“USE OF 7-TRIFLUOROMETHYL-7ALPHA,25-DIHYDROXYCHOLESTEROL IN THE TREATMENT AND MODULATION OF AUTOIMMUNE AND INFLAMMATORY DISEASES OF THE NERVOUS SYSTEM AND NEURODEGENERATIVE DISEASES” (Gdanski Uniwersytet Medyczny, priority 2023, dated 2025)", "key": {"[1]": {"tested_on": "mouse organotypic cerebellar slices", "experiment": "Remyelination of organotypic cerebellar slices after LPC demyelination (Mbp mRNA by quantitative PCR)", "assay_type": "cell-based", "conditions": "LPC 0.4 mg/ml, then treatment in serum-free culture medium for 14-16 days; barbadin 16 µM, 7α,25OHC 0.1 µM, NIBR189 10 µM; concentration of CF3-7α,25OHC not given; vs untreated LPC slices", "procedure": "Organotypic cerebellar slices were sampled from ten-day old mice and then grown in an incubator for 14 days. After 14 days the myelin was chemically removed with LPC (0.4 mg/ml). Following the removal of the myelin sheaths, the slices were treated with: • 1. the control group: regular culture medium, without LPC • 2. LPC, then on serum-free culture medium for 14-16 days • 3. LPC followed by barbadin 16 µM in serum-free culture medium for 14-16 days • 4. LPC followed by 7α,25OHC 0.1 µM in serum-free culture medium for 14-16 days • 5. LPC followed by NIBR189 10 µM in serum-free culture medium for 14-16 days • 6. LPC followed by barbadin 16 µM + 7α,25OHC 0.1 µM in serum-free culture medium for 14-16 days\nOnce the experiment was completed (remyelination for 14-16 days) the slices were collected and MBP mRNA levels were measured by the PCR quantitative method. In the mouse organotypic cerebellar slices in which myelin sheaths were chemically removed with lysophosphatidylcholine (LPC) spontaneous myelin regeneration took place except for the slices treated with a selective EBI2 receptor antagonist (NIBR189). The results once again reveal key significance of EBI2 intracellular signalling for myelin regeneration. […] Barbadin, which inhibits internalisation of the EBI2 receptor, is necessary to achieve the therapeutic effect (faster remyelination) in the case of non-modified oxysterol (Fig 1 and Fig 2a)."}, "[2]": {"tested_on": "mice in the cuprizone model", "experiment": "Cuprizone model: mass spectrometer imaging and lipid quantification in brain sections", "assay_type": "in vivo", "description": "Measurement of lipoprotein density in myelin sheaths, taken on sections of brains of the mice in the cuprizone model. The mice in the cuprizone model subject were divided into 6 groups: • #1. control group: regular cuprizone-free chow for 9 weeks. The mice were euthanised after 9 weeks and tissue samples were taken for analysis. In these mice no removal of myelin sheaths occurred. • #2. control group with cuprizone: chow containing cuprizone for 9 weeks. The mice were euthanised after 9 weeks and tissue samples were taken for analysis. In the mice fed with chow containing cuprizone myelin sheaths were removed. • #3. vehicle control group - the mice were fed with chow containing cuprizone for 9 weeks, and then with regular chow without cuprizone for 2 weeks. Over the 2 weeks on regular show the mice in the vehicle control group were first injected with vehicle #1: DMSO, intraperitoneally, 150 µl once a day, and then with vehicle #2: canola oil, subcutaneously, 150 µl once a day. • #4. barbadin control group - the mice were fed with chow containing cuprizone for 9 weeks and then with regular chow without cuprizone for 2 weeks. […]\nMouse brain sections were imaged using a mass spectrometer and then the lipid density was quantified (Fig 4). […]"}, "Ebi2 receptor": {"tested_on": "Ebi2 receptor", "experiment": "Ebi2 mRNA level in the cerebellum, cuprizone model", "assay_type": "in vivo, mice", "conditions": "during remyelination in the cuprizone model"}, "Ch25h, Cyp7b1, Hsd3b7": {"tested_on": "Ch25h, Cyp7b1, Hsd3b7", "experiment": "mRNA level of synthesizing and degrading enzymes in the cerebellum, cuprizone model", "assay_type": "in vivo, mice"}, "CD4+ cells": {"tested_on": "CD4+ cells", "experiment": "Cuprizone model: immunofluorescently tagged CD4+ cells in the central part of the corpus callosum", "assay_type": "in vivo, mice", "conditions": "after 14 days of treatment in the cuprizone model, group E", "description": "Measurement of the quantity of immunofluorescently-tagged CD4+ cells in the central part of the corpus callosum following 14 days of treatment in the cuprizone model (Fig 7). Morphology of mouse blood in the cuprizone model and the in vivo model testing short-term pharmacotherapy of oxysterol CF3-7α,25OHC (Fig 10).\nA (Fig 7) control group: regular cuprizone-free chow for 9 weeks. Mice were euthanised after 9 weeks and tissue samples were taken for analysis. In these mice, myelin sheaths were not removed.\nB (Fig 7) control group with cuprizone: chow containing cuprizone for 9 weeks. The mice were euthanised following 9 weeks and tissue samples were taken for analysis. In the mice fed with cuprizone-containing chow myelin sheaths were removed.\nC (Fig 7) or #3 (Fig 8 and 9) vehicle control group - the mice were fed with chow containing cuprizone for 9 weeks, and then with regular chow without cuprizone for another 2 weeks. Over the 2 weeks on regular chow the mice in the vehicle control group were first injected vehicle #1: DMSO (intraperitoneal injection), 150 µl once a day, and then vehicle #2: canola oil, subcutaneously, 150 µl once a day.\nE (Fig 7) or #5 experimental group with oxysterol CF3-7α,25OHC - the mice were fed with chow containing cuprizone for 9 weeks, and then with regular chow without cuprizone for another 2 weeks. […]"}, "[3]": {"tested_on": "pro-inflammatory cytokine IL1β", "experiment": "Cuprizone model: IL1β mRNA in cerebellum lysates by PCR", "from_the_text": "Identifying the mRNA levels of pro-inflammatory cytokine IL1β in mouse cerebellum lysates (Fig 11)."}}, "note": "Entries after “also recorded” stand apart in the source; their conditions may differ."}
{"compound": "C[C@H](CCCC(C)(C)O)[C@H]1CC[C@H]2[C@H]3[C@H](CC[C@]12C)[C@@]1(C)CC[C@H](O)CC1=C[C@]3(O)C(F)(F)F", "note": "[CF3-7α,25OHC, cholestene-7β-trifluoromethyl,3β,7α,25-triol]", "values": [{"measurement": "remyelination (Mbp expression)", "setting": "[1]", "value": "remyelinate quicker than slices not treated with anything; also recorded: remyelinate faster than the untreated slices"}, {"measurement": "content of cholesterol in the corpus callosum", "setting": "[2]; group E (CF3-7α,25OHC 20 mg/kg) compared to control group treated with vehicles", "value": "higher"}, {"measurement": "number of lipids with higher synthesis / concentration in the corpus callosum (brain)", "setting": "[2]; group E compared to untreated group C", "value": 15}, {"measurement": "level of Ebi2 expression", "setting": "Ebi2 receptor", "value": "increases the level of Ebi2 expression"}, {"measurement": "expression level of the synthesizing (Ch25h, Cyp7b1) and degrading (Hsd3b7) enzymes", "setting": "Ch25h, Cyp7b1, Hsd3b7", "value": "does not regulate the expression level"}, {"measurement": "count of CD4+ cells in the corpus callosum", "setting": "CD4+ cells", "value": "fewest; also recorded: lowest count"}, {"measurement": "mRNA level of IL1β dropped by", "setting": "[3]; cerebellum lysates, cuprizone model, compared to the group treated solely with vehicles", "value": 28, "unit": "%"}, {"measurement": "blood-brain barrier penetration", "setting": "[3]; concluded from the IL1β effect in the cerebellum", "value": "penetrates the blood-brain barrier"}, {"measurement": "pro-inflammatory cytokine IL1β in cerebellum lysates", "setting": "[3]; cuprizone model, group #5", "value": "Reduction"}]}
